Laboratory results reported in patent US10245240B2, “Treatment of prostate carcinoma” (Pellficure Pharmaceuticals, Inc., priority 2010, dated 2019).

Assays:
[1] = tested on: PTEN-P2/GFP mouse cancer cells; assay: Dose response plumbagin in PTEN-P2/GFP cells, cell counting with or without DHT; assay type: cell-based; details: for % control / Average % control: 24 hours; for Average % control: mean of two experiments
Experimental: Cell counting: Cells in 12-well plates are washed once with PBS, detached using Trypsin, and transferred to a suspension vial in a final volume of 10 ml PBS. Cells are counted using a COULTER™ Multisizer II instrument (Beckman Coulter Inc., Hialeah, Fla.) gated for the appropriate cell size and corrected for particulate debris.
PTEN-P2/GFP mouse cancer cells were placed in androgen withdrawal medium in the presence or absence of DHT (dihydrotestosterone) at a final concentration of 10^−8 M. Plumbagin was added at the indicated concentrations for 24 hours. The absence of DHT simulates surgical or chemical castration. Cells were trypsinized and counted using a Cell Coulter counter Multisizer II, which excludes debris. Results represent cell numbers as percent of control (in which the number of cells in the absence of drug is 100%).
Androgen withdrawal medium: DMEM high-glucose phenol-red free, with the following additives: 10% charcoal-treated Fetal Bovine Serum, 25 ug/ml bovine pituitary extract, 5 ug/ml insulin, 6 ng/ml EGF recombinant.

[2] = tested on: P388 lymphocytic leukemia; details: cited from earlier work
PTEN-P2/GFP tumor = assay: In vivo effect of plumbagin combined with castration, pseudo-orthotopic chamber model (Example 5); parameters: species or system nude mice
Experimental: Animal model and surgical techniques: Animal experiments have been approved as appropriate. All surgical procedures are performed in a sterile laminar flow hood. Dorsal skinfold chambers and surgical instruments are autoclaved before use. Saline used to keep tissue moist during surgical preparation is mixed with gentamicin ([…]).
Male Nude mice (25-35 g body weight) are anesthetized (7.3 mg ketamine hydrochloride and 2.3 mg xylazine/100 g body weight, i.p.) and placed on a heating pad. Two symmetrical titanium frames are implanted into a dorsal skinfold, so as to sandwich the extended double layer of skin. A 15 mm full thickness circular layer is excised. The underlying muscle (M. cutaneous max.) and subcutaneous tissues are covered with a glass coverslip incorporated in one of the frames. After a recovery period of 2-3 days, prostate tissue and cancer cell spheroids are carefully placed in the chamber. Small circular Band Aids are applied on the backside of the chamber after surgery to prevent scratching. Before surgery, Buprenorphine (0.1 mg/kg) will be given IP. After surgery Meloxicam will be given in the drinking water for 4 days Meloxicam (5.0 mg/ml), is added at 35 μl per 100 ml of water to be medicated.
Preparation of stroma: A male donor mouse is euthanized and the anterior prostate tissue is excised, put in a Petri dish with antibiotics (gentamicin 50 μl/ml), and minced with fine scissors into small pieces (<1 mm^2) for implantation.
Preparation of tumor spheroids: Liquid overlay plates are generated using 1% Agarose melted in DMEM that is added to round-bottom 96-well plates (50 ul/well). […] Viability is determined using Trypan blue. […]. The size of the implanted spheroid can be determined precisely to minimize variations between animals. […]
Intravital microscopy: Fluorescence microscopy is performed using a Mikron Instrument Microscope equipped with epi-illuminator and video-triggered stroboscopic illumination from a xenon arc (MV-7600, EG&G). […]

CC1=CC(=O)c2c(O)cccc2C1=O [Plumbagin, 5-hydroxy-2-methylnaphthalene-1,4-dione]
efficiency of plumbagin with simulated castration (no DHT) versus plumbagin alone ([1]; in vitro, PTEN-P2/GFP cells): more efficient than treatment with plumbagin alone | % control ([1]; noDHT, 1 μM plumbagin, first experiment): 73.70% | Average % control ([1]; noDHT, 1 μM plumbagin): 84.83% | % control ([1]; noDHT, 1 μM plumbagin, second experiment column): 95.96% | % control ([1]; noDHT, 2 μM plumbagin, first experiment): 42.90% | Average % control ([1]; noDHT, 2 μM plumbagin): 40.02% | % control ([1]; noDHT, 2 μM plumbagin, second experiment column): 37.14% | % control ([1]; noDHT, 4 μM plumbagin, first experiment): 10.12% | Average % control ([1]; noDHT, 4 μM plumbagin): 5.84% | % control ([1]; noDHT, 4 μM plumbagin, second experiment column): 1.57% | % control ([1]; noDHT, 8 μM plumbagin, first experiment): 0.45% | Average % control ([1]; noDHT, 8 μM plumbagin): 0.33% | % control ([1]; noDHT, 8 μM plumbagin, second experiment column): 0.22% | % control ([1]; with DHT, 1 μM plumbagin, first experiment): 106.93% | Average % control ([1]; with DHT, 1 μM plumbagin): 84.11% | % control ([1]; with DHT, 1 μM plumbagin, second experiment column): 61.29% | % control ([1]; with DHT, 2 μM plumbagin, first experiment): 94.18% | Average % control ([1]; with DHT, 2 μM plumbagin): 56.67% | % control ([1]; with DHT, 2 μM plumbagin, second experiment column): 19.16% | % control ([1]; with DHT, 4 μM plumbagin, first experiment): 22.62% | Average % control ([1]; with DHT, 4 μM plumbagin): 13.76% | % control ([1]; with DHT, 4 μM plumbagin, second experiment column): 4.89% | % control ([1]; with DHT, 8 μM plumbagin, first experiment): 0.85% | Average % control ([1]; with DHT, 8 μM plumbagin): 0.62% | % control ([1]; with DHT, 8 μM plumbagin, second experiment column): 0.40% | ED50 [2]: 4 mg/kg body weight | efficiency of combination of plumbagin with castration versus either treatment alone (PTEN-P2/GFP tumor; plumbagin 1 mg/kg intraperitoneal once/day soon after surgical castration): more efficient in vivo than either treatment alone | tumor size, castration with plumbagin (PTEN-P2/GFP tumor; plumbagin 1 mg/kg ip once/day plus surgical castration): significant decreases in tumor size | tumor size, plumbagin only (PTEN-P2/GFP tumor; plumbagin 1 mg/kg ip once/day, no castration): did not lead to a marked decrease in tumor size
